Assay results: US20100204340A1 (priority 2009, published 2010)
Converted amounts (≈) assume the structure as drawn. Like-named read-outs stand apart in the source and are kept apart here.

What was measured:
[1] = tested on: Propionibacterium acnes ATCC 11827; assay: Broth dilution method, inhibitory concentration (IC50, IC100); type: cell-based; details: for inhibition at 41.6 µg/mL / inhibition at 83.3 µg/mL / inhibition at 166 µg/mL / inhibition at 332 µg/mL / inhibition at 498 µg/mL / IC50 / inhibition at 16.6 µg/mL: Cutibacterium acnes, ATCC11827
Description: Method: Broth dilution method to evaluate the inhibitory concentration (IC).
Materials • 1. Propionibacterium acnes ATCC: 11827 • 2. Physiological saline or Buffered peptone water (BPW). • 3. Reinforced clostridium medium (RCM) Hi-media • 4. Actinomyces broth (AC broth) Hi-media • 5. Anaerobic chamber. • 6. Gassing manifold Nitrogen, mixed gases. • 7. Spectrophotometer (600 nm to 625 nm). • 8. Sterile tubes • 9. Micro Pipette • 10. Sterile micro tips. • 11. (DMSO) dimethylsulphoxide
The strain Propionibacterium acnes (ATCC 11827) was obtained from ATCC. The inhibitory concentration (IC) of the given sample was determined by broth dilution method according to NCCLS guidelines. The IC50 was defined as that concentration of compound that reduced bacterial growth by 50% as determined spectrophotometrically. IC100 was defined as the lowest concentration of compound that inhibited bacterial growth by 100%. Resveratrol and 3-Hydroxypsterostilbene are water insoluble. Therefore samples were dissolved in DMSO and than added to Actinomyces broth to a final concentration of 0-500 mg/L. Twenty-four hour cultures of P.acnes were adjusted to 1×10^8 cfu/ml using McFarland standards and inoculated to Actinomycetes broth containing a specific concentration of compound. Controls containing just DMSO were also included in the test. Cultures were incubated anaerobically at 37° C. and read spectrophotometrically at 600 nm both at 24 h and 48 h incubation periods. IC50 and IC100 values were calculated from these observations.

[2] = DPPH scavenging assay
[3] = tested on: Bacterial reverse mutation; assay: Bacterial reverse mutation assay (AMES); type: cell-based; details: presence and absence of metabolic activation, upto 415 μg/ml
Experimental: 3-hydroxypterostilbene is non mutagenic in the Bacterial reverse mutation assay (AMES), both in the presence and absence of metabolic activation, upto a workable concentration of 415 μg/ml.

[4] = Pharmacokinetics in serum and urine upon oral administration; type: in vivo, rats; details: rat, in vivo, po, 100 mg/kg
Experimental: The compound in its free and conjugated form is freely absorbed into systemic circulation with the glucoronide detected up to 72 hours.
(FIG. 4). The compound in its free and conjugated form appears in systemic circulation within 15 minutes of administration.

[5] = tested on: B16F1 mouse melanoma cell line; assay: Melanin inhibitory assay; type: cell-based; details: B16-F1
[6] = target: collagenase; assay: Anti collagenase assay; type: biochemical
[7] = Oxygen Radical Absorbance Capacity (ORAC)
[8] = tested on: Sprague Dawley rats; assay: in vivo; details: rat, po
Experimental: (§1) Repeated dose 90 day Oral toxicity study for 3HPT in Sprague Dawley rats: The study was conducted to evaluate the possible health hazards likely to arise from repeated exposure to 3HPT over a relatively limited period of time. The study was conducted in six groups consisting of 120 rats with 60 males and 60 females. Group-I, I (R), II, III, IV and IV (R) served as Control, Control Recovery, Low dose (20 mg/kg Bwt), Mid dose (80 mg/kg Bwt), High dose (200 mg/kg Bwt) and High dose Recovery (200 mg/kg Bwt) groups respectively. The test item or vehicle was administered through oral route by gavage to animals daily for 90 days. The animals of Control group and Control recovery group were administered with Corn oil. The vehicle and test item administration to Control Recovery and High dose Recovery group animals respectively was stopped after 90 days of administration and observed for another 28 days to evaluate the effects during recovery period. […] Body weights and food consumptions were recorded at weekly intervals. On completion of 90 days for treatment groups or 118 days for recovery groups respectively, the blood samples were collected from all the animals and subjected to haematological and clinical chemistry evaluation. At termination the animals were humanely sacrificed and subjected to necropsy examination. […]

[9] = in vivo; details: both sexes, Sprague Dawley, rat, po
Experimental: as §1

[10] = target: tyrosinase; assay: Anti tyrosinase activity; type: biochemical
[11] = target: Elastase; assay: Anti Elastase assay; type: biochemical
[12] = target: α-glucosidase; assay: Anti α-glucosidase activity; type: biochemical
[13] = 16.6 mg/L, 24 h, IC n = n % inhibition of bacterial growth
[14] = 16.6 mg/L, 48 h, IC n = n % inhibition of growth
[15] = 41.6 mg/L, 24 h, IC n = n % inhibition of growth
[16] = 41.6 mg/L, 48 h, IC n = n % inhibition of growth
[17] = 83.3 mg/L, 24 h, IC n = n % inhibition of growth
[18] = 83.3 mg/L, 48 h, IC n = n % inhibition of growth
[19] = 166 mg/L, 24 h, IC n = n % inhibition of growth
[20] = 166 mg/L, 48 h, IC n = n % inhibition of growth
[21] = 332 mg/L, 24 h, IC n = n % inhibition of growth
[22] = 332 mg/L, 48 h, IC n = n % inhibition of growth
[23] = P. acnes ATCC 11827, 24 h, read-out: IC50 24 h
[24] = P. acnes ATCC 11827, 48 h, read-out: IC50 48 h

Structure (SMILES)	OD @ 600 nm 24 h ([1]; 16.6 mg/L, 24 h, dilution 1:2)	OD @ 600 nm 48 h ([1]; 16.6 mg/L, 48 h, dilution 1:2)	OD @ 600 nm 24 h ([1]; 41.6 mg/L, 24 h, dilution 1:2)	OD @ 600 nm 48 h ([1]; 41.6 mg/L, 48 h, dilution 1:2)	Concentration showing 100% inhibition of Propionibacterium acnes ([1]; 24 hours of incubation)	Concentration showing 100% inhibition of Propionibacterium acnes ([1]; 48 hours of incubation)	inhibition at 41.6 µg/mL [1, 15]	inhibition at 41.6 µg/mL [1, 16]	inhibition at 83.3 µg/mL [1, 17]	inhibition at 83.3 µg/mL [1, 18]	inhibition at 166 µg/mL [1, 19]	inhibition at 166 µg/mL [1, 20]	inhibition at 332 µg/mL [1, 21]	inhibition at 332 µg/mL [1, 22]	IC50 [1, 23]	IC50 [1, 24]	IC100 24 h ([1]; P. acnes ATCC 11827, 24 h)	IC100 48 h ([1]; P. acnes ATCC 11827, 48 h)	further results
Oc1ccc(/C=C/c2cc(O)cc(O)c2)cc1 [Resveratrol, 3,4′,5-trihydroxy-trans-stilbene]	1.027	0.884	0.777	0.593	332 mg/mL	498 mg/mL	17%	27%	55%	30%	75%	68%	100%	85%	83 µg/mL (≈ 364 µM)	120 µg/mL (≈ 526 µM)	332.0 mg/L	498 mg/L	(IC) Inhibitory concentration [1, 13]: No inhibition; (IC) Inhibitory concentration [1, 14]: No inhibition; OD @ 600 nm 24 h ([1]; 83.3 mg/L, 24 h, dilution 1:2): 0.423; OD @ 600 nm 48 h ([1]; 83.3 mg/L, 48 h, dilution 1:2): 0.573; OD @ 600 nm 24 h ([1]; 166 mg/L, 24 h, dilution 1:2): 0.232; OD @ 600 nm 48 h ([1]; 166 mg/L, 48 h, dilution 1:2): 0.268; OD @ 600 nm 24 h ([1]; 332 mg/L, 24 h, dilution As such): 0.00; OD @ 600 nm 48 h ([1]; 332 mg/L, 48 h, dilution As such): 0.11; OD @ 600 nm 48 h ([1]; 498 mg/L, 48 h, dilution As such): 0.00; inhibition at 498 µg/mL ([1]; 498 mg/L, 24 h, IC n = n % inhibition of growth): 100%; inhibition at 498 µg/mL ([1]; 498 mg/L, 48 h, IC n = n % inhibition of growth): 100%
COc1cc(/C=C/c2ccc(O)c(O)c2)cc(OC)c1 [3-hydroxypterostilbene]	0.526	0.443	0.352	0.338	83.3 mg/mL	83 mg/mL	62%	62%	98%	98%	100%	100%	100%	100%	33.5 µg/mL (≈ 123 µM)	35.8 µg/mL (≈ 131 µM)	83.3 mg/L	83.0 mg/L	OD @ 600 nm 24 h ([1]; 83.3 mg/L, 24 h, dilution As such): 0.047; OD @ 600 nm 48 h ([1]; 83.3 mg/L, 48 h, dilution As such): 0.073; inhibition at 16.6 µg/mL [1, 13]: 45%; inhibition at 16.6 µg/mL [1, 14]: 45%; SC50, DPPH scavenging [2]: SC50 is 1.34 μg/ml; Mutagenicity [3]: non mutagenic; Oral bioavailability (free form and glucoronide) [4]: orally bioavailable; Time to appearance in systemic circulation (free and conjugated form) [4]: ≤ 15 min; Urinary excretion form [4]: excreted predominantly as glucoronides in the urine; IC50 [5]: 0.7 µg/mL (≈ 2.57 µM); IC50, anti collagenase [6]: IC50 is 90 μg/ml; Oxygen Radical Absorbance Capacity (ORAC) [7]: 13334 ± 323 μmol TE/100 g; Necropsy and histopathology examination of tissues and organs [8]: did not reveal any pathological changes; NOAEL at 90 days [9]: 200 mg/kg; IC50, anti tyrosinase activity [10]: IC50 is 2 μg/ml; IC50, anti Elastase [11]: IC50 is 82 μg/ml; IC50, anti α-glucosidase [12]: IC50 is 203.7 μg/ml
